According to EP0522944A2, “Use of 3-(3-pyridinyl)-1H,3H-pyrrolo(1,2-c)thiazole-7-carboxamide for the treatment of retroviral infections” (RHONE-POULENC RORER S.A., priority 1991, dated 1993):

Columns and labels:
Format in all cases: cell-based
[1] = test system: virus HIV-1; assay: Reverse transcriptase activity as indicator of viral production in chronically HIV-1 infected U1 cells stimulated with TNFa or GM-CSF + IL-6 (first series)
Source text: Les effets du (+) (pyridyl-3)-3 1H,3H-pyrrolo[1,2-c] thiazolecarboxamide-7 sur l'induction du virus HIV-1 ont été étudiés sur des lignées cellulaires chroniquement infectées.
(§1) On utilise des lignées cellulaires U1 obtenues après infection de la lignée promonocytaire, U937, par le virus HIV-1 et sélectionnée le selon la capacité à augmenter la production virale en réponse au Phorbol My- ristate Acétate (PMA), au TNF et à d'autres médiateurs [Folks et al., Science, 238, 800 (1987)]. L'activité de la reverse transcriptase est utilisée comme un indicateur de la production virale. On analyse ainsi l'effet de concentrations croissantes du produit à étudier sur des lignées cellulaires stimulées.
(§2) Les cultures cellulaires sont prélévées en phase de croissance exponantielle et remises en culture à raison d'une concentration finale de 2x105 cellules/ml, en présence de différentes concentrations du produit à étudier. 30 minutes après, l'ensemble des cultures est additionné de TNFa ou de GM-CSF (Granulocyte Macrophage Colony Stimulating Factor) plus 11-6 (Interleukine-6). Chaque essai est fait en double, excepté les contrôles qui sont faits en quadruple. Chaque jour suivant, une fraction de surnageant des cultures est prélevée, et congelée en vue de la mesure de la reverse transcriptase. Les cellules sont nourries si nécessaire, avec du milieu frais ne contenant ni produit à étudier, ni activateur.
(§3) La mesure de l'activité de la reverse transcriptase est faite par les techniques connues, en double exemplaire [Strebel et al., Nature, 328, 728 (1987)].
Le (+) (pyridyl-3)-3 1 H,3H-pyrrolo[1,2-c]thiazole carboxamide-7 est étudié aux concentrations de 100, 10, 1 et 0,1 µM.
Le TNFa est additionné à raison de 100, 10 ou 1 Unités/ml. Le GM-CSF + 11-6 est additionné à raison de 100 U/mi. Certains contrôles ne recoivent pas l'activateur. D'autres contrôles ne reçoivent pas le produit à étudier. D'autres ne reçoivent ni le produit ni l'activateur.

[2] = test system: virus HIV-1; assay: Duration of action: pretreatment of U1 cells with the product before stimulation by TNF, PMA or GM-CSF + IL-6, reverse transcriptase production (second series)
Source text: as §1
as §2, with “30 minutes après, l'ensemble des cultures est additionné de TNFa ou de GM-CSF (Granulocyte Macrophage Colony Stimulating Factor) plus 11-6 (Interleukine-6).” left out
as §3
Dans une seconde série d'essais, la durée d'action du (+) (pyridyl-3)-3 1H,3H-pyrrolo[1,2-c]thiazolecarboxamide-7 a été testée.

[3] = test system: cellules U1; assay: Viability of the U1 cells in presence of the product; conditions: whatever the concentration used (0,1 to 100 µM)
Protocol: as §2

SMILES: NC(=O)c1ccn2c1CSC2c1cccnc1 (single isomer, unassigned; (+)) [produit, (+) (pyridyl-3)-3 1H,3H-pyrrolo[1,2-c]thiazole carboxamide-7]
- inhibition at 100 µM ([1]; Human immunodeficiency virus 1, 72 h, U1 cells, 100 Unités/ml TNFa, day 3, product 10-^4M, read-out: diminution de l'activité de la reverse transcriptase): 84%
- inhibition at 10 µM ([1]; Human immunodeficiency virus 1, 72 h, U1 cells, 100 Unités/ml TNFa, day 3, product 10^-5M, read-out: diminution de l'activité de la reverse transcriptase): 50%
- diminution de la production virale ([1]; U1 cells treated with TNFa): significative et dose-dépendante
- action inhibitrice du HIV-1 dans les cellules U1 ([1]; stimulated by GM-CSF + II-6): significative
- Production de Reverse Transcriptase Coups par minute (cpm) ([2]; Tableau I, U1 cells + product 100µM, no stimulation, contact time 0,5 h): <100 cpm
- Production de Reverse Transcriptase Coups par minute (cpm) ([2]; Tableau I, U1 cells + product 100µM, no stimulation, contact time 2 h): <100 cpm
- Production de Reverse Transcriptase Coups par minute (cpm) ([2]; Tableau I, U1 cells + product 100µM, no stimulation, contact time 7 h): <100 cpm
- Production de Reverse Transcriptase Coups par minute (cpm) ([2]; Tableau I, U1 cells + product 100µM, no stimulation, contact time 10 h): <100 cpm
- Production de Reverse Transcriptase Coups par minute (cpm) ([2]; Tableau II, U1 cells + product 100µM, no stimulation, contact time 0,5 h): env.100 cpm
- Production de Reverse Transcriptase Coups par minute (cpm) ([2]; Tableau II, U1 cells + product 100µM, no stimulation, contact time 2 h): env.100 cpm
- Production de Reverse Transcriptase Coups par minute (cpm) ([2]; Tableau II, U1 cells + product 100µM, no stimulation, contact time 7 h): env.100 cpm
- Production de Reverse Transcriptase Coups par minute (cpm) ([2]; Tableau II, U1 cells + product 100µM, no stimulation, contact time 10 h): <100 cpm
- Production de Reverse Transcriptase Coups par minute (cpm) ([2]; Tableau III, U1 cells + product 100µM, no stimulation, contact time 0,5 h): 180 cpm
- Production de Reverse Transcriptase Coups par minute (cpm) ([2]; Tableau III, U1 cells + product 100µM, no stimulation, contact time 2 h): 150 cpm
- Production de Reverse Transcriptase Coups par minute (cpm) ([2]; Tableau III, U1 cells + product 100µM, no stimulation, contact time 7 h): 180 cpm
- Production de Reverse Transcriptase Coups par minute (cpm) ([2]; Tableau III, U1 cells + product 100µM, no stimulation, contact time 10 h): 160 cpm
- Production de Reverse Transcriptase Coups par minute (cpm) ([2]; U1 cells + product 100µM + GM-CSF (100U) + IL6 (100U), contact time before stimulation 0,5 h): 200 cpm
- Production de Reverse Transcriptase Coups par minute (cpm) ([2]; U1 cells + product 100µM + GM-CSF (100U) + IL6 (100U), contact time before stimulation 2 h): 180 cpm
- Production de Reverse Transcriptase Coups par minute (cpm) ([2]; U1 cells + product 100µM + GM-CSF (100U) + IL6 (100U), contact time before stimulation 7 h): 170 cpm
- Production de Reverse Transcriptase Coups par minute (cpm) ([2]; U1 cells + product 100µM + GM-CSF (100U) + IL6 (100U), contact time before stimulation 10 h): 180 cpm
- Production de Reverse Transcriptase Coups par minute (cpm) ([2]; U1 cells + product 100µM + PMA (10^-7), contact time before stimulation 0,5 h): 4700 cpm
- Production de Reverse Transcriptase Coups par minute (cpm) ([2]; U1 cells + product 100µM + PMA (10^-7), contact time before stimulation 2 h): 1900 cpm
- Production de Reverse Transcriptase Coups par minute (cpm) ([2]; U1 cells + product 100µM + PMA (10^-7), contact time before stimulation 7 h): 1900 cpm
- Production de Reverse Transcriptase Coups par minute (cpm) ([2]; U1 cells + product 100µM + PMA (10^-7), contact time before stimulation 10 h): 900 cpm
- Production de Reverse Transcriptase Coups par minute (cpm) ([2]; U1 cells + product 100µM + TNFα(100U), contact time before stimulation 0,5 h): 300 cpm
- Production de Reverse Transcriptase Coups par minute (cpm) ([2]; U1 cells + product 100µM + TNFα(100U), contact time before stimulation 2 h): 200 cpm
- Production de Reverse Transcriptase Coups par minute (cpm) ([2]; U1 cells + product 100µM + TNFα(100U), contact time before stimulation 7 h): 180 cpm
- Production de Reverse Transcriptase Coups par minute (cpm) ([2]; U1 cells + product 100µM + TNFα(100U), contact time before stimulation 10 h): env.100 cpm
- effet inhibiteur de la réplication du HIV-1 ([2]; pretreatment 30 minutes to 24 heures before stimulation by TNF, PMA or GM-CSF + II-6): n'affecte pas l'effet inhibiteur
- viabilité des cellules [3]: sans effet
